Results: patent US20260258032A1, “TYROSINE KINASE 2 INHIBITORS AND USES THEREOF” (BIOGEN MA INC., priority 2022, published 2026)
Structures can show the parent of a compound that is named as a salt.

Columns and labels:
[1] = target: T1, JH2 domain of human Tyk2 (Homo sapiens, UniProt P29597); test: JH2 biochemical assay (TR-FRET probe displacement); type: binding
T1 construct: 10×His-tagged TYK2 JH2 domain (amino acid 575-876)
How it was run: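 A probe-displacement TR-FRET readout: compounds, tested in 3-fold, 10-point dilutions starting at […], compete with 2 nM tracer for 2 nM His-tagged JH2 (residues 575-876) detected by 0.1 nM Tb-anti-His over 60 min. IC50 comes from 4-parameter fits of normalized 520/495 nm ratios.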

[2] = tested on: Tyk2 kinase activity on STAT4; test: pSTAT4 cell assay (MSD, NK92 cells); type: cell-based; settings: compounds 1 hr
How it was run: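 IC50 values come from 4-parameter logistic fits of normalized percent activity. Phospho-STAT was read by MSD (anti-STAT4 antibodies) in NK92 lysates after a 15 min stimulation with 30 ng/mL IL2. The serum-starved cells had been given compound for 1 h (10 points, four-fold, top 10 μM).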

[3] = TR-FRET probe displacement, JH2 domain of human Tyk2

T1 sequence (P29597 575-876): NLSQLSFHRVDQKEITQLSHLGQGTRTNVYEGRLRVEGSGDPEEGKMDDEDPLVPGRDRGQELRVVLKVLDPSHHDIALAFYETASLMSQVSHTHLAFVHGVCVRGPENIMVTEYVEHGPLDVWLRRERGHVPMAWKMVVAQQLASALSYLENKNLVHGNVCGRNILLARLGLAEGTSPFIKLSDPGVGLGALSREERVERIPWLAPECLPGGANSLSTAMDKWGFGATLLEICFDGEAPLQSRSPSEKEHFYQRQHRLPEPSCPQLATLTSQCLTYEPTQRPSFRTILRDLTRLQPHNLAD

Compound	IC50 ([1]; JH2 biochemical assay)	IC50 ([2]; stimulated 15 minutes)	IC50 [1, 3]	IC50 ([2]; then stimulated 15 minutes)
CC(=O)Nc1cc2c(cn1)C1(CC1)CN2c1cc([C@@H]2C[C@@H]2C#N)nc(C(C)(F)F)n1 (racemic) [Example 73, cis-rac-N-(1′-(6-(2-cyanocyclopropyl)-2-(1,1-difluoroethyl)pyrimidin-4-yl)-1′,2′-dihydrospiro[cyclopropane-1,3′-pyrrolo[3,2-c]pyridin]-6′-yl)acetamide or trans-rac-N-(1′-(6-(2-cyanocyclopropyl)-2-(1,1-difluoroethyl)pyrimidin-4-yl)-1′,2′-dihydrospiro[cyclopropane-1,3′-pyrrolo[3,2-c]pyridin]-6′-yl)acetamide]	≤ 10 nM	10 to 100 nM		
CNCc1cc(N2CC3(CC3)c3cnc(NC(C)=O)cc32)nc(C(C)(F)F)n1 [Example 298, N-(1′-(2-(1,1-difluoroethyl)-6-((methylamino)methyl)pyrimidin-4-yl)-1′,2′-dihydrospiro[cyclopropane-1,3′-pyrrolo[3,2-c]pyridin]-6′-yl)acetamide]	10 to 100 nM	≥ 1000 nM		
CC(=O)Nc1cc2c(cn1)C1(CC1)CN2c1cc(C)nc(F)n1 [Example 332, N-(1′-(2-fluoro-6-methylpyrimidin-4-yl)-1′,2′-dihydrospiro[cyclopropane-1,3′-pyrrolo[3,2-c]pyridin]-6′-yl)acetamide trifluoroacetate]	100 to 1000 nM	≥ 1000 nM		
CC(=O)Nc1cc2c(cn1)C1(CC1)CN2c1cc(C)nc(OC2CC(C)C2)n1 (centres unmarked) [Example 367, N-(1′-(6-methyl-2-(3-methylcyclobutoxy)pyrimidin-4-yl)-1′,2′-dihydrospiro[cyclopropane-1,3′-pyrrolo[3,2-c]pyridin]-6′-yl)acetamide]	100 to 1000 nM	≥ 1000 nM		
CCC1(C#N)CN(c2nc(C)cc(N3CC4(CC4)c4cnc(NC(C)=O)cc43)n2)C1 [Example 219, N-(1′-(2-(3-cyano-3-ethylazetidin-1-yl)-6-methylpyrimidin-4-yl)-1′,2′-dihydrospiro[cyclopropane-1,3′-pyrrolo[3,2-c]pyridin]-6′-yl)acetamide]	10 to 100 nM	100 to 1000 nM		
CC(=O)Nc1cc2c(cn1)C1(CC1)CN2c1cc(NC2COC2)nc(C(C)(F)F)n1 [Example 285, N-(1′-(2-(1,1-difluoroethyl)-6-(oxetan-3-ylamino)pyrimidin-4-yl)-1′,2′-dihydrospiro[cyclopropane-1,3′-pyrrolo[3,2-c]pyridin]-6′-yl)acetamide]	≤ 10 nM	10 to 100 nM		
CC(=O)Nc1cc2c(cn1)C1(CC1)CN2c1cc(C(=O)O)nc(C(C)(F)F)n1 [Example 294, 6-(6′-acetamidospiro[cyclopropane-1,3′-pyrrolo[3,2-c]pyridin]-1′(2′H)-yl)-2-(1,1-difluoroethyl)pyrimidine-4-carboxylic acid]	10 to 100 nM	≥ 1000 nM		
CC(=O)Nc1cc2c(cn1)C1(CC1)CN2c1cc(C)nc(OC2CC(F)C2)n1 (centres unmarked) [Example 377, N-(1′-(2-(3-fluorocyclobutoxy)-6-methylpyrimidin-4-yl)-1′,2′-dihydrospiro[cyclopropane-1,3′-pyrrolo[3,2-c]pyridin]-6′-yl)acetamide]			10 to 100 nM	≥ 1000 nM
CC(=O)Nc1cc2c(cn1)C1(CC1)CN2c1cc(C)nc(OC2CCC2)n1 [Example 138, N-(1′-(2-cyclobutoxy-6-methylpyrimidin-4-yl)-1′,2′-dihydrospiro[cyclopropane-1,3′-pyrrolo[3,2-c]pyridin]-6′-yl)acetamide]	10 to 100 nM	≥ 1000 nM		
CC(=O)Nc1cc2c(cn1)C1(CC1)CN2c1cc([C@H]2C[C@@H](C#N)C2)nc(C(C)(F)F)n1 [Example 74, N-(1′-(6-((1s,3s)-3-cyanocyclobutyl)-2-(1,1-difluoroethyl)pyrimidin-4-yl)-1′,2′-dihydrospiro[cyclopropane-1,3′-pyrrolo[3,2-c]pyridin]-6′-yl)acetamide or N-(1′-(6-((1r,3r)-3-cyanocyclobutyl)-2-(1,1-difluoroethyl)pyrimidin-4-yl)-1′,2′-dihydrospiro[cyclopropane-1,3′-pyrrolo[3,2-c]pyridin]-6′-yl)acetamide]	≤ 10 nM	10 to 100 nM		
CC(=O)Nc1cc2c(cn1)C1(CC1)CN2c1cc(C)cc(-c2cnn(C(F)F)c2)n1 [Example 259, N-(1′-(6-(1-(difluoromethyl)-1H-pyrazol-4-yl)-4-methylpyridin-2-yl)-1′,2′-dihydrospiro[cyclopropane-1,3′-pyrrolo[3,2-c]pyridin]-6′-yl)acetamide trifluoroacetate]	≤ 10 nM	100 to 1000 nM		
COCc1cc(N2CC3(CC3)c3cnc(NC(C)=O)cc32)nc(C(C)(F)F)n1 [Example 397, N-(1′-(2-(1,1-difluoroethyl)-6-(methoxymethyl)pyrimidin-4-yl)-1′,2′-dihydrospiro[cyclopropane-1,3′-pyrrolo[3,2-c]pyridin]-6′-yl)acetamide]			≤ 10 nM	100 to 1000 nM
COc1cccc(N2CC3(CC3)c3cnc(NC(C)=O)cc32)n1 [Example 313, N-(1′-(6-methoxypyridin-2-yl)-1′,2′-dihydrospiro[cyclopropane-1,3′-pyrrolo[3,2-c]pyridin]-6′-yl)acetamide]	10 to 100 nM	≥ 1000 nM		
CCc1nc(C)cc(N2CC3(CC3)c3cnc(NC(C)=O)cc32)n1 [Example 64, N-(1′-(2-ethyl-6-methylpyrimidin-4-yl)-1′,2′-dihydrospiro[cyclopropane-1,3′-pyrrolo[3,2-c]pyridin]-6′-yl)acetamide]	10 to 100 nM	≥ 1000 nM		
CC(=O)Nc1cc2c(cn1)C1(CC1)CN2c1cc(C(C)(C)O)nc(C(C)(F)F)n1 [Example 399, N-(1′-(2-(1,1-difluoroethyl)-6-(2-hydroxypropan-2-yl)pyrimidin-4-yl)-1′,2′-dihydrospiro[cyclopropane-1,3′-pyrrolo[3,2-c]pyridin]-6′-yl)acetamide]			≤ 10 nM	10 to 100 nM
CC(=O)Nc1cc2c(cn1)C1(CC1)CN2c1cc(C)nc(OC2CC(C#N)C2)n1 (centres unmarked) [Example 375, N-(1′-(2-(3-cyanocyclobutoxy)-6-methylpyrimidin-4-yl)-1′,2′-dihydrospiro[cyclopropane-1,3′-pyrrolo[3,2-c]pyridin]-6′-yl)acetamide]			100 to 1000 nM	≥ 1000 nM
CCn1cc(-c2nc(C)cc(N3CC4(CC4)c4cnc(NC(C)=O)cc43)n2)cn1 [Example 247, N-(1′-(2-(1-ethyl-1H-pyrazol-4-yl)-6-methylpyrimidin-4-yl)-1′,2′-dihydrospiro[cyclopropane-1,3′-pyrrolo[3,2-c]pyridin]-6′-yl)acetamide]	≤ 10 nM	100 to 1000 nM		
COC1CC(COc2nc(C)cc(N3CC4(CC4)c4cnc(NC(C)=O)cc43)n2)C1 (centres unmarked) [Example 372, N-(1′-(2-((3-methoxycyclobutyl)methoxy)-6-methylpyrimidin-4-yl)-1′,2′-dihydrospiro[cyclopropane-1,3′-pyrrolo[3,2-c]pyridin]-6′-yl)acetamide]			100 to 1000 nM	≥ 1000 nM
CCCc1nc(C)cc(N2CC3(CC3)c3cnc(NC(C)=O)cc32)n1 [Example 65, N-(1′-(6-methyl-2-propylpyrimidin-4-yl)-1′,2′-dihydrospiro[cyclopropane-1,3′-pyrrolo[3,2-c]pyridin]-6′-yl)acetamide]	10 to 100 nM	100 to 1000 nM		
COC1(C(=O)C2CC2)CCN(c2nc(C)cc(N3CC4(CC4)c4cnc(NC(C)=O)cc43)n2)CC1 [Example 231, N-(1′-(2-(4-(cyclopropanecarbonyl)-4-methoxypiperidin-1-yl)-6-methylpyrimidin-4-yl)-1′,2′-dihydrospiro[cyclopropane-1,3′-pyrrolo[3,2-c]pyridin]-6′-yl)acetamide trifluoroacetate]	100 to 1000 nM	≥ 1000 nM		
CC(=O)Nc1cc2c(cn1)C1(CC1)CN2c1cc(C)cc(C2(O)CCOC2)n1 (centres unmarked) [Example 95, N-(1′-(6-(3-hydroxytetrahydrofuran-3-yl)-4-methylpyridin-2-yl)-1′,2′-dihydrospiro[cyclopropane-1,3′-pyrrolo[3,2-c]pyridin]-6′-yl)acetamide]	≤ 10 nM	100 to 1000 nM		
CCOc1cc(C)cc(N2CC3(CC3)c3cnc(NC(C)=O)cc32)n1 [Example 335, N-(1′-(6-ethoxy-4-methylpyridin-2-yl)-1′,2′-dihydrospiro[cyclopropane-1,3′-pyrrolo[3,2-c]pyridin]-6′-yl)acetamide trifluoroacetate]	10 to 100 nM	≥ 1000 nM		
COC1CCC(Oc2cc(C)cc(N3CC4(CC4)c4cnc(NC(C)=O)cc43)n2)C1 (centres unmarked) [Example 338, N-(1′-(6-((3-methoxycyclopentyl)oxy)-4-methylpyridin-2-yl)-1′,2′-dihydrospiro[cyclopropane-1,3′-pyrrolo[3,2-c]pyridin]-6′-yl)acetamide trifluoroacetate]	100 to 1000 nM	100 to 1000 nM		
CC(=O)Nc1cc2c(cn1)C1(CC1)CN2c1cc(C)nc(C(C)C)n1 [Example 66, N-(1′-(2-isopropyl-6-methylpyrimidin-4-yl)-1′,2′-dihydrospiro[cyclopropane-1,3′-pyrrolo[3,2-c]pyridin]-6′-yl)acetamide]	≤ 10 nM	100 to 1000 nM		
COCCCc1nc(C)cc(N2CC3(CC3)c3cnc(NC(C)=O)cc32)n1 [Example 71, N-(1′-(2-(3-methoxypropyl)-6-methylpyrimidin-4-yl)-1′,2′-dihydrospiro[cyclopropane-1,3′-pyrrolo[3,2-c]pyridin]-6′-yl)acetamide]	10 to 100 nM	≥ 1000 nM		
